From US10669235B2, “Indole derivatives and their use as protein kinase inhibitors” (RESPIVERT LIMITED, priority 2016, dated 2020)
Where a name gives a salt, the structure may show the parent alone. Read-outs that look alike come from different tables or passages of the source.

Tests used:
[1] = Pharmacokinetic measurements in rats (i.v., i.t., oral); type: in vivo; details: rat; for concentration at 0.1 h / concentration at 1.5 h / concentration at 6 h / concentration at 24 h: lung; for concentration at 0.1 h: read-out: lung concentration (nM) at time 0.1 h; for concentration at 1.5 h: read-out: lung concentration (nM) at time 1.5 h; for concentration at 6 h: read-out: lung concentration (nM) at time 6 h; for concentration at 24 h: read-out: lung concentration (nM) at time 24 h; for Kp at 0.1 h / Kp at 1.5 h / Kp at 6 h / Kp at 24 h: lung/plasma
MRC5 cells = test: Cell viability assay in MRC5 cells (MTT)
PAMPA permeability assay = type: in vitro ADME; details: for Papp at 5 h, 10 µM: pH 7, 10 μM
PDGFRβ [2] = molecular target: T1, PDGFRβ (Homo sapiens (Human), UniProt P09619); test: PDGFRβ enzyme inhibition (ADP-Glo assay); type: biochemical; details: mean, n = 2 (nintedanib n = 34)
PDGFRβ [3] = molecular target: T1, PDGFRβ; test: PDGF-BB induced phosphorylation of PDGFRβ in fibroblasts (MRC5, HTRF); type: cell-based
[4] = male, CD, other: intra-tracheal
[5] = i.t. dose 0.1 (nintedanib 0.42)
[6] = i.t. dose 0.1 (nintedanib 0.42), 1.5 h
[7] = i.t. dose 0.1 (nintedanib 0.42), 6 h
[8] = i.t. dose 0.1 (nintedanib 0.42), 24 h
[9] = i.v. dose 0.1 (nintedanib 0.42)
[10] = i.v. dose 0.1 (nintedanib 0.42), 1.5 h
[11] = i.v. dose 0.1 (nintedanib 0.42), 6 h
[12] = i.v. dose 0.1 (nintedanib 0.42), 24 h
[13] = male, CD, iv, read-out: lung/plasma ratio at time 0.1 h
[14] = male, CD, iv, read-out: lung/plasma ratio at time 1.5 h
[15] = male, CD, iv, read-out: lung/plasma ratio at time 6 h
[16] = male, CD, iv, read-out: lung/plasma ratio at time 24 h
[17] = male, CD, other: intra-tracheal, read-out: lung/plasma conc ratio at time 0.1 h
[18] = MRC5 cells, PDGFBB stimulation, read-out: PDGFBB-induced PDGFRβ phosphorylation in MRC5 cells (IC50)

T1 sequence (P09619 33-1106): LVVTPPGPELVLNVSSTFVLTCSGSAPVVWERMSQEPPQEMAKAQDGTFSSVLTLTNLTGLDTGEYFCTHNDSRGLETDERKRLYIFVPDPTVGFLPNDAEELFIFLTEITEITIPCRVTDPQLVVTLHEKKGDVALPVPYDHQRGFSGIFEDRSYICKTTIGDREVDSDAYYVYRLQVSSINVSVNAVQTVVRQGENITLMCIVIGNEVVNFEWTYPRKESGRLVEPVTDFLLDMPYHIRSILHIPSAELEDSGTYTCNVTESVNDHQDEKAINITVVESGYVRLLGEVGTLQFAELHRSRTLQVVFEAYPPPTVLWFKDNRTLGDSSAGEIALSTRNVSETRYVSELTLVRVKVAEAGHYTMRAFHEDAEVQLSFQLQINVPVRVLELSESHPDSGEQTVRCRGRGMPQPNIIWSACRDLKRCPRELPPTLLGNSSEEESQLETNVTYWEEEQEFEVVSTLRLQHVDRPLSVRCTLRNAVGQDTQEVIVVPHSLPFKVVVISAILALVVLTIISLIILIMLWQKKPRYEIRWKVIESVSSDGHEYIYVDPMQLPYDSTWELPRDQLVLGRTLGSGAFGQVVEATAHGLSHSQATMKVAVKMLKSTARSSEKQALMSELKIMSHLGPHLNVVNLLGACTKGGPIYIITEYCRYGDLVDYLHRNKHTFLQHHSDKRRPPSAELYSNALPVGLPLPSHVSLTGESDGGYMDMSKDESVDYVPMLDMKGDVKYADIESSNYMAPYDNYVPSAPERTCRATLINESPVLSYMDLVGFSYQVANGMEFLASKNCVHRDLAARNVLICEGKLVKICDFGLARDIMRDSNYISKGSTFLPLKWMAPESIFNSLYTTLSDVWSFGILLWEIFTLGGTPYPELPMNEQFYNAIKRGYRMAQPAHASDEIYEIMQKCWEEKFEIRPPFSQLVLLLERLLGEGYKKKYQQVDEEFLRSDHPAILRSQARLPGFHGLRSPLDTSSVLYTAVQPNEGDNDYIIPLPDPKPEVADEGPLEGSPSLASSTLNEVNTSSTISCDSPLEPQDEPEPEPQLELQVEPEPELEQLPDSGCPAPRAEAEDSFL

## COC(=O)c1cc2c(cc1C)/C(=C(/Nc1ccc(C(=O)NC3CCN(C)CC3)cc1)c1ccccc1)C(=O)N2 [Example 18, (Z)-Methyl-5-methyl-3-(((4-((1-methylpiperidin-4-yl)carbamoyl)phenyl)amino)(phenyl)methylene)-2-oxoindoline-6-carboxylate, formate]
[1]; male, CD, iv
  concentration at 0.1 h: 638 nM
  concentration at 1.5 h: 306 nM
  concentration at 6 h: 201 nM
[1]; [4]
  concentration at 0.1 h: 6530 nM
  concentration at 1.5 h: 5990 nM
  concentration at 6 h: 2350 nM
  concentration at 24 h: 4520 nM
[1]; male, CD, plasma, iv
  half-life: 5.1 h
[1]; [5]
  i.t. BAV (%): 39%
  BAL % administered dose at time 0.1 h: 6.7%
[1]; [6]
  BAL % administered dose at time 1.5 h: 2.2%
[1]; [7]
  BAL % administered dose at time 6 h: 0.4%
[1]; [8]
  BAL % administered dose at time 24 h: 0.3%
[1]; [9]
  BAL % administered dose at time 0.1 h: 0.13%
[1]; [10]
  BAL % administered dose at time 1.5 h: 0%
[1]; [11]
  BAL % administered dose at time 6 h: BQL
[1]; [12]
  BAL % administered dose at time 24 h: BQL
MRC5 cells
  Cell viability at 100 nM (%): 98.2%
  Cell viability at 300 nM (%): 97.3%
  Cell viability at 1000 nM (%): 91.8%
PAMPA permeability assay; pH 7
  recovery at 5 hr, 10 μM: 84.5%
PAMPA permeability assay
  Papp at 5 h, 10 µM: 0.00383 ×10⁻⁶ cm/s
PDGFRβ [2]
  Ki: 7.99 nM
PDGFRβ [3]
  IC50: 16.8 nM

## COC(=O)c1cc2c(cc1C)/C(=C(/Nc1ccc(C(=O)NCCN3CCNC(=O)C3)cc1)c1ccccc1)C(=O)N2 [Example 9, (Z)-Methyl 5-methyl-2-oxo-3-(((4-((2-(3-oxopiperazin-1-yl)ethyl)carbamoyl)phenyl)amino) (phenyl)methylene)indoline-6-carboxylate]
[1]; male, CD, iv
  concentration at 0.1 h: 494 nM
  concentration at 1.5 h: 174 nM
  concentration at 6 h: 235 nM
  concentration at 24 h: 502 nM
[1]; [4]
  concentration at 0.1 h: 5700 nM
  concentration at 1.5 h: 8810 nM
  concentration at 6 h: 10500 nM
  concentration at 24 h: 10500 nM
[1]; [13]
  Kp at 0.1 h: 17
[1]; [14]
  Kp at 1.5 h: 55
[1]; [15]
  Kp at 6 h: > 326
[1]; [16]
  Kp at 24 h: > 697
[1]; [17]
  Kp at 0.1 h: > 7890
[1]; male, CD, plasma, iv
  MRT: 1.1 h
  clearance: 90 mL/min/kg
  half-life: 1.1 h
[1]; male, CD, plasma, iv, read-out: Vss
  Vd: 7 L/kg
[1]
  Lung conc i.t./i.v. Ratio at time 0.1 h: 12
[1]; 1.5 h
  Lung conc i.t./i.v. Ratio at time 1.5 h: 51
[1]; 6 h
  Lung conc i.t./i.v. Ratio at time 6 h: 45
[1]; 24 h
  Lung conc i.t./i.v. Ratio at time 24 h: 21
[1]; [5]
  i.t. BAV (%): <40%
  BAL % administered dose at time 0.1 h: 13.7%
[1]; [6]
  BAL % administered dose at time 1.5 h: 5.2%
  lung/plasma conc ratio at time 1.5 h: >12197
[1]; [7]
  BAL % administered dose at time 6 h: 2.3%
  lung/plasma conc ratio at time 6 h: >14485
[1]; [8]
  BAL % administered dose at time 24 h: 0.5%
  lung/plasma conc ratio at time 24 h: >14483
[1]; [9]
  BAL % administered dose at time 0.1 h: BQL
[1]; [10]
  BAL % administered dose at time 1.5 h: BQL
[1]; [11]
  BAL % administered dose at time 6 h: BQL
[1]; [12]
  BAL % administered dose at time 24 h: BQL
[1]; oral dose 3 mg/kg
  Oral BAV (%): <2%
MRC5 cells
  Cell viability at 100 nM (%): 102%
  Cell viability at 300 nM (%): 103.6%
  Cell viability at 1000 nM (%): 97.5%
PAMPA permeability assay; pH 7, PAMPA
  recovery at 5 hr, 10 μM: 72.7%
  Papp at 5 h, 10 µM: 0.0146 ×10⁻⁶ cm/s
PDGFRβ [2]
  Ki: 7.89 nM
PDGFRβ [3]; [18]
  IC50: 14.2 nM

## COC(=O)c1cc2c(cc1C)/C(=C(/Nc1ccc(C(=O)NCC3CCN(C)CC3)cc1)c1ccccc1)C(=O)N2 [Example 3, (Z)-Methyl 5-methyl-3-(((4-(((1-methylpiperidin-4-yl)methyl)carbamoyl)phenyl)amino)(phenyl)methylene)-2-oxoindoline-6-carboxylate, formate]
[1]; male, CD, iv
  concentration at 0.1 h: 761 nM
  concentration at 1.5 h: 700 nM
  concentration at 6 h: 321 nM
  concentration at 24 h: 135 nM
[1]; [4]
  concentration at 0.1 h: 2600 nM
  concentration at 1.5 h: 4990 nM
  concentration at 6 h: 4680 nM
  concentration at 24 h: 1860 nM
[1]; [13]
  Kp at 0.1 h: 38
[1]; [14]
  Kp at 1.5 h: 154
[1]; [15]
  Kp at 6 h: 120
[1]; [16]
  Kp at 24 h: > 72
[1]; [17]
  Kp at 0.1 h: 100
[1]; male, CD, other: intra-tracheal, read-out: lung/plasma conc ratio at time 1.5 h
  Kp at 1.5 h: 1910
[1]; male, CD, other: intra-tracheal, read-out: lung/plasma conc ratio at time 6 h
  Kp at 6 h: 2150
[1]; male, CD, other: intra-tracheal, read-out: lung/plasma conc ratio at time 24 h
  Kp at 24 h: > 1000
[1]
  Lung conc i.t./i.v. Ratio at time 0.1 h: 3
[1]; 1.5 h
  Lung conc i.t./i.v. Ratio at time 1.5 h: 7
[1]; 6 h
  Lung conc i.t./i.v. Ratio at time 6 h: 15
[1]; 24 h
  Lung conc i.t./i.v. Ratio at time 24 h: 14
[1]; [5]
  BAL % administered dose at time 0.1 h: 14%
[1]; [6]
  BAL % administered dose at time 1.5 h: 1.2%
[1]; [7]
  BAL % administered dose at time 6 h: 0.7%
[1]; [8]
  BAL % administered dose at time 24 h: 0.3%
[1]; [9]
  BAL % administered dose at time 0.1 h: 0.1%
[1]; [10]
  BAL % administered dose at time 1.5 h: 0.1%
[1]; [11]
  BAL % administered dose at time 6 h: 0.03%
[1]; [12]
  BAL % administered dose at time 24 h: 0.02%
MRC5 cells
  Cell viability at 100 nM (%): 88%
  Cell viability at 300 nM (%): 86.1%
  Cell viability at 1000 nM (%): 79.5%
PAMPA permeability assay; pH 7, PAMPA
  recovery at 5 hr, 10 μM: 92.4%
  Papp at 5 h, 10 µM: 0.00775 ×10⁻⁶ cm/s
PDGFRβ [2]
  Ki: 6.86 nM
PDGFRβ [3]; [18]
  IC50: 12.7 nM
